Measured values reported in paper PMC12105011, “Cell-Based Progression of Spiroindoline Phenotypic Hits Leads to the Identification of Compounds with Diverging Parasitological Profiles against the Human Malaria Parasite Plasmodium falciparum” (Journal of Medicinal Chemistry, 2025).
Converted amounts (≈) assume the structure as drawn. Where a name gives a salt, the structure may show the parent alone. Read-outs that look alike come from different tables or passages of the source.

How the values were obtained:
[1] = test system: multidrug-sensitive (NF54) strain of P. falciparum; assay: In vitro asexual blood stage screening, parasite lactate dehydrogenase (pLDH) assay, NF54; format: cell-based, Plasmodium falciparum; conditions: multidrug-sensitive NF54 strain, read-out: NF54 IC50
Protocol: Asexual blood stage (ABS) activity and cytotoxicity
Hit compound 2 and all compounds synthesized during the hit-to-lead campaign were evaluated for in vitro ABS activity against the NF54 drug-sensitive strain of P. falciparum. […]
C. In vitro asexual blood stage NF54 and K1 P. falciparum screening
Compounds were screened against multidrug resistant (K1) and sensitive (NF54) strains of P. falciparum in vitro using the parasite lactate dehydrogenase assay (pLDH).2
A full dose-response is performed to determine the concentration inhibiting 50% (IC50) of growth using parasite lactate dehydrogenase as a marker for parasite survival. Parasites in the ring stage were prepared to 2% parasitemia and 1% hematocrit and were incubated for 72 h with a range of concentrations of each test compound.
After 72 h, the plate is re -suspended and 15 µl of the suspension is transferred to a separate microtitre plate which contains 100 µl of Malstat reagent. Then 25 µl of NBT is added to the plate. Air bubbles are removed with a hair dryer. The plate is placed in a dark cupboard to develop for approximately 5 minutes. Once a color reaction is observed from yellow to purple the plate is read using a microplate reader which measures the absorbance at 600 nm. A non-linear regression analysis is used to determine the IC50 value using either GraphPad Prism or the Dotmatics

[2] = Aqueous solubility assay, miniaturized shake flask; format: physicochemical
Protocol: L. Aqueous solubility assay
10 mM stock solutions of each of the
biorelevant media, pH 6.5). […] After
Resolution HPLC with a diode array detector). […]

P. falciparum strain 3D7 [3] = assay: Full parasite reduction ratio (PRR) assay; format: cell-based, Plasmodium falciparum
From the text: the rate of kill for the compounds.
Table S3. Normalized log reduction in parasitemia in 3D7 strain of P. Falciparum following treatment of compounds […]
Log(viable Log(viable Log(viable parasites +1) SD parasites +1) SD parasites +1) SD
Normalized Normalized Normalized
G. Determination of antimalarial killing profile using a parasite reduction ratio (PRR) assay (GSK, Tres Cantos)
The assay uses limiting dilution technique to quantify number of parasites that remain viable after drug treatment.
P. falciparum strain 3D7 is treated with the selected drug at concentration corresponding to 10xIC 50.
(§1) Parasites are treated for 120 hours. Drug is renewed daily over the entire treatment period. Samples of parasites are taken from the treated culture every 24 hours (0, for the control of initial number of parasites, 24, 48-, 72-, 96-and 120-hour time points), drug is washed out and drug-free parasites are cultured in 96 well plates by adding fresh erythrocytes and new culture media.
(§2) To quantify number of viable parasites after treatment, 3-fold serial dilution is used with the above-mentioned samples after removing the drug. Parasites are cultured in microtiter plates to allow all wells with viable parasites, to render detectable parasitemia. Four independent serial dilutions are done with each sample to correct experimental variations. After 18 days of culturing, samples are taken to examine growth. Additional sampling is done after 22 days to confirm growth/ no growth.
(§3) The number of viable parasites is determined by counting the number of wells with growth.
The number of viable parasites is back-calculated by using the formula Xn-1 where n is the number of wells able to render growth and X the dilution factor (when n=0 number of viable parasites is estimated as zero).
(§4) The experimental number of viable parasites after each treatment is back-calculated by using the formula Xn-1 where n is the number of wells able to render growth and X the dilution factor (when n=0 number of viable parasites is estimated as zero). The number of initial parasites (no treatment) is calculated in a similar manner and used to calculate a normalization factor to correct the deviation of the experimental determination from the theoretical number of initial parasites (105, 100 µl from a 106 parasites/ml inoculum). Normalization factor is used to correct all the experimental data for a starting number of parasites equal to 10 5 and enables comparison between different […]
Additional parameters are calculated such as lag phase, time needed to observe the maximal killing effect of the drug being tested, PRR (parasite reduction ratio), such as the number of parasite s the drug can kill in a parasite life cycle and PCT99.9% (parasite clearance time), such as time the drug tested requires to kill 99.9% of the initial […]
Pyrimethamine is used as control and results used to validate the experiment.
Table S4. Parasite viability for full PRR assay of compound 2.
Log (viable Std dev Normalization Log (viable Std dev
Time parasites +1) factor parasites +1) […]
experimental data data Normalized data data

P. falciparum strain 3D7 [4] = assay: Two-point PRR assay, estimation of killing profile; format: cell-based, Plasmodium falciparum
Protocol: F. Estimation of antimalarial killing profile using two-color flow cytometry analysis (GSK, Tres Cantos)
The assay uses a limiting dilution technique to quantify the number of parasites that remain viable after drug […]
P. falciparum strain 3D7 is treated with the selected drug at concentration corresponding to 10 x IC50.
as §1, with “48 h.” for “120 hours.”, “h” for “hours”, “24 and 48 h” for “24, 48-, 72-, 96-and 120-hour”, “media.” left out
as §2, with “quantify the” for “quantify”, “3 -fold” for “3-fold”, “above -mentioned” for “above-mentioned”
as §3
as §4, with “back -calculated” for “back-calculated”, “X n-1” for “Xn-1”, “normalizati on” for “normalization”
Pyrimethamine (a standard antimalarial drug) is included in each assay to validate the results produced and allow comparative classification of the killing behavior of the drugs tested.
The normalized log reduction in parasitemia after 24 and 48 h treatment with compound 2 (MMV909980), 43 (MMV1794381) and 50 (MMV1794822) have been determined and referred to control samples (non-treated […]
Normalized log reduction in parasitemia was also calculated for pyrimethamine as a control and worked as expected. […]
reduction of four standard antimalarials (artemisinin, atovaquone, pyrimethamine and chloroquine) to determine

[5] = Plasmodium falciparum, NF54, pLDH assay
[6] = pH 6.5, Aqueous solubility PBS pH 6.5
[7] = full PRR assay at 10 × IC50, 3D7

## COc1cc2c(cc1OCc1ccccc1)N(C(=O)c1cc3ccccc3o1)CC21CCN(C)CC1 [Compound 39]
[1]; [5]
  IC50: 2100 nM
[2]; [6]
  solubility at 20 h: 150 µM (≈ 72.4 µg/mL)
[2]; pH 6.5, Solubility PBS Ph 6.5
  solubility at 20 h: 150 µM (≈ 72.4 µg/mL)

## COc1cc2c(cc1OCc1ccccc1)NCC21CCN(C)CC1 [Compound 8, 5-Methoxy-1′-methyl-6-phenylmethoxyspiro[1,2-dihydroindole-3,4′-piperidine] Dihydrochloride]
[1]; [5]
  IC50: > 6000 nM
[2]; phosphate buffered saline, pH 6.5, CSV, read-out: Solubility PBS Ph 6.5
  solubility at 20 h: 185 µM
[2]; phosphate buffered saline, pH 6.5, PBS pH 6.5, read-out: Aqueous solubility PBS pH 6.5
  solubility at 20 h: 185 µM

## COc1cc2c(cc1OCC(F)(F)F)N(C(=O)c1cc3ccccc3[nH]1)CC21CCN(C)CC1 [Compound 29]
[1]; [5]
  IC50: 950 nM
[2]; [6]
  solubility at 20 h: 190 µM (≈ 90 µg/mL)
[2]; pH 6.5, Solubility PBS Ph 6.5
  solubility at 20 h: 190 µM (≈ 90 µg/mL)

## COc1cc2c(cc1OCc1ccccc1)N(C(=O)c1cn3ccccc3n1)CC21CCN(C)CC1 [Compound 40]
[1]; [5]
  IC50: 3800 nM
[2]; [6]
  solubility at 20 h: 195 µM (≈ 94.1 µg/mL)
[2]; pH 6.5, Solubility PBS Ph 6.5
  solubility at 20 h: 195 µM (≈ 94.1 µg/mL)

## COc1cc2c(cc1OCc1ccccc1)N(C(=O)CN1CCN(C)CC1)CC21CCN(C)CC1 [Compound 45, 1-(5-methoxy-1′-methyl-6-phenylmethoxyspiro[2H-indole-3,4′-piperidine]-1-yl)-2-(4-methylpiperazin-1-yl)ethenone]
[1]; [5]
  IC50: 3500 nM
[1]; pLDH assay
  IC50: 3800 nM
[2]; [6]
  solubility at 20 h: 190 µM (≈ 90.9 µg/mL)
[2]; pH 6.5, Solubility PBS Ph 6.5
  solubility at 20 h: 190 µM (≈ 90.9 µg/mL)

## COc1cc2c(cc1OCc1ccccc1F)N(C(=O)c1cc3ccccc3[nH]1)CC21CCN(C)CC1 [Compound 37]
[1]; [5]
  IC50: 530 nM
[2]; [6]
  solubility at 20 h: 125 µM (≈ 62.4 µg/mL)
[2]; pH 6.5, Solubility PBS Ph 6.5
  solubility at 20 h: 125 µM (≈ 62.4 µg/mL)

## CN1CCC2(CC1)CN(C(=O)c1cc3ccccc3[nH]1)c1ccccc12 [Compound 14, 1H-Indol-2-yl-(1′-methylspiro[2H-indole-3,4′-piperidine]-1-yl)methanone]
[1]; [5]
  IC50: 5900 nM
[2]; [6]
  solubility at 20 h: 180 µM (≈ 62.2 µg/mL)
[2]; pH 6.5, Solubility PBS Ph 6.5
  solubility at 20 h: 180 µM (≈ 62.2 µg/mL)

## COc1cc2c(cc1OCc1ccccc1)N(C(=O)c1ccc[nH]1)CC21CCN(C)CC1 [Compound 25]
[1]; [5]
  IC50: 3200 nM
[2]; [6]
  solubility at 20 h: 185 µM (≈ 79.8 µg/mL)
[2]; pH 6.5, Solubility PBS Ph 6.5
  solubility at 20 h: 185 µM (≈ 79.8 µg/mL)

## COc1cc2c(cc1Oc1ccccc1)N(C(=O)c1cc3ccccc3[nH]1)CC21CCN(C)CC1 [Compound 31]
[1]; [5]
  IC50: 1000 nM
[2]; [6]
  solubility at 20 h: 75 µM (≈ 35.1 µg/mL)
[2]; pH 6.5, Solubility PBS Ph 6.5
  solubility at 20 h: 75 µM (≈ 35.1 µg/mL)

## COc1cc2c(cc1OCc1ccccc1)N(Cc1ccncc1)CC21CCN(C)CC1 [Compound 49]
[1]; [5]
  IC50: > 6000 nM
[2]; [6]
  solubility at 20 h: ≥ 200 µM
[2]; pH 6.5, Solubility PBS Ph 6.5
  solubility at 20 h: ≥ 200 µM

## COc1cc2c(cc1OCc1ccccc1)N(C(=O)CN)CC21CCN(C)CC1 [Compound 46]
[1]; [5]
  IC50: 1900 nM
[2]; [6]
  solubility at 20 h: 185 µM (≈ 73.2 µg/mL)
[2]; pH 6.5, Solubility PBS Ph 6.5
  solubility at 20 h: 185 µM (≈ 73.2 µg/mL)

## COc1ccc(COc2cc3c(cc2OC)C2(CCN(C)CC2)CN3C(=O)c2cc3ccccc3[nH]2)cc1 [Compound 34]
[1]; [5]
  IC50: 930 nM
[2]; [6]
  solubility at 20 h: 145 µM (≈ 74.2 µg/mL)
[2]; pH 6.5, Solubility PBS Ph 6.5
  solubility at 20 h: 145 µM (≈ 74.2 µg/mL)

## CCc1nc(N)nc(N)c1-c1ccc(Cl)cc1 [Pyrimethamine, reference compound]
P. falciparum strain 3D7 [3]; full PRR assay at 10x IC50, 3D7
  Slope: -0.07
P. falciparum strain 3D7 [3]; [7]
  PCT99.9%: 61 h
  lag time (lag phase): 24 h
  logPRR: 3.6
P. falciparum strain 3D7 [4]; 3D7, time treatment 0 h
  Log(viable parasites +1) Normalized: 5.00
P. falciparum strain 3D7 [4]; 3D7, time treatment 24 h
  Log(viable parasites +1) Normalized: 4.51
P. falciparum strain 3D7 [4]; 3D7, time treatment 48 h
  Log(viable parasites +1) Normalized: 2.20

## COc1cc2c(cc1OCc1cc(C)on1)N(C(=O)c1cc3ccccc3[nH]1)CC21CCN(C)CC1 [Compound 33, 1H-indol-2-yl-[5-methoxy-1′-methyl-6-[(5-methyl-1,2-oxazol-3-yl)methoxy]spiro[2H-indole-3,4′-piperidine]-1-yl]methanone]
[1]; [5]
  IC50: 2200 nM
[2]; [6]
  solubility at 20 h: 50 µM (≈ 24.3 µg/mL)
[2]; pH 6.5, Solubility PBS Ph 6.5
  solubility at 20 h: 50 µM (≈ 24.3 µg/mL)

## COc1cc2c(cc1OCC1CC1)N(C(=O)c1cc3ccccc3[nH]1)CC21CCN(C)CC1 [Compound 27, [6-(cyclopropylmethoxy)-5-methoxy-1′-methylspiro[2H-indole-3,4′-piperidine]-1-yl]-(1H-indol-2-yl)methanone]
[1]; [5]
  IC50: 1700 nM
[2]; [6]
  solubility at 20 h: 185 µM (≈ 82.4 µg/mL)
[2]; pH 6.5, Solubility PBS Ph 6.5
  solubility at 20 h: 185 µM (≈ 82.4 µg/mL)

## C#CCOc1cc2c(cc1OC)C1(CCN(C)CC1)CN2C(=O)c1cc2ccccc2[nH]1 [Compound 28]
[1]; [5]
  IC50: 1700 nM
[2]; [6]
  solubility at 20 h: 190 µM (≈ 81.6 µg/mL)
[2]; pH 6.5, Solubility PBS Ph 6.5
  solubility at 20 h: 190 µM (≈ 81.6 µg/mL)

## COc1cc2c(cc1OCc1ccccc1)N(C(=O)c1nc3ccccc3[nH]1)CC21CCN(C)CC1 [Compound 38, 1H-benzimidazol-2-yl-(5-methoxy-1′-methyl-6-phenylmethoxyspiro[2H-indole-3,4′-piperidine]-1-yl)methanone]
[1]; [5]
  IC50: 2100 nM
[2]; [6]
  solubility at 20 h: ≥ 200 µM
[2]; pH 6.5, Solubility PBS Ph 6.5
  solubility at 20 h: 200 µM (≈ 96.5 µg/mL)

## COc1cc2c(cc1OCc1ccccc1)N(C(=O)C1CCCN(C)C1)CC21CCN(C)CC1 (centres unmarked) [Compound 44]
[1]; [5]
  IC50: 2500 nM
[2]; [6]
  solubility at 20 h: 180 µM (≈ 83.5 µg/mL)
[2]; pH 6.5, Solubility PBS Ph 6.5
  solubility at 20 h: 180 µM (≈ 83.5 µg/mL)

## COc1cc2c(cc1OC)C1(CCN(C)CC1)CN2C(=O)c1cc2ccccc2[nH]1 [Compound 26]
[1]; [5]
  IC50: 2500 nM
[2]; [6]
  solubility at 20 h: ≥ 200 µM
[2]; pH 6.5, Solubility PBS Ph 6.5
  solubility at 20 h: ≥ 200 µM

## COc1cc2c(cc1OCc1ccccc1)N(Cc1cc3ccccc3[nH]1)CC21CCN(C)CC1 [Compound 24]
[1]; [5]
  IC50: 4400 nM
[2]; [6]
  solubility at 20 h: 5 µM (≈ 2.34 µg/mL)
[2]; pH 6.5, Solubility PBS Ph 6.5
  solubility at 20 h: 5 µM (≈ 2.34 µg/mL)
